Assay results from patent US20250195521A1 (Revolution Medicines, Inc., priority 2020, published 2025).
pEC50, pIC50: −log10 of the molar value.

Experiments:
[1] = test system: NCI-H358 cells (K-Ras G12C); test: CellTiter-Glo cell viability, NCI-H358; assay type: cell-based, human; settings: Homo sapiens, NCI-H358, 120 h, K-Ras G12C, 5-day treatment; read-out: H358 Cell Viability IC50
Procedure, shortened: (§1)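 Cells seeded, compound dispensed straight into wells, 5-day exposure. Plates brought to room temperature ~30 min, CellTiter-Glo luminescence measured. Normalized to DMSO (%), 4-parameter logistic fit.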

[2] = test system: Capan-1 cells (K-Ras G12V); test: CellTiter-Glo cell viability, Capan-1; assay type: cell-based, human; settings: Homo sapiens, CAPAN-1, 120 h, K-Ras G12V, 5-day treatment; read-out: Capan-1 Cell Viability IC50
Procedure, shortened: as §1

KRAS G13C = KRAS G13C (Homo sapiens (Human), UniProt P01116+P62937, G13C); test: Ras-Raf disruption/FRET/MOA assay (BRAF RBD, Cyclophilin A); assay type: biochemical; settings: read-out: KRAS G13C FRET IC50
Sequence of KRAS G13C (P01116 other isoform, or with tags, fused parts or gaps G13C): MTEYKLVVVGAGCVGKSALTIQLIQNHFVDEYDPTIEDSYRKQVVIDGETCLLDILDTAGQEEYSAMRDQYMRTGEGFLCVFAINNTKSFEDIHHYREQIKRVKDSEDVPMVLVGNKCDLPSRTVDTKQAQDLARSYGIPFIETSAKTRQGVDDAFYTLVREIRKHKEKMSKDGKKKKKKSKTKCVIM
Sequence of KRAS G13C (P62937 whole entry): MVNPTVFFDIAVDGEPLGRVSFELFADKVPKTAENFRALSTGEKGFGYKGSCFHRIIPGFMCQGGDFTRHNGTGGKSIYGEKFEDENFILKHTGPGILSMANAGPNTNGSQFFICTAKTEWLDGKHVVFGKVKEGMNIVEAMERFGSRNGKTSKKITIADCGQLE
Procedure, shortened: (§2)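 First, 25 μM Cyclophilin A, 12.5 nM His6-Ras-GMPPNP and 50 nM GST-BRAF RBD are mixed with diluted compound at pH 7.3. Next, 3 h at 25° C. Then 10 nM anti-His Eu-W1024 plus 50 nM anti-GST allophycocyanin for 1.5 h before TR-FRET reading.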

KRAS G12C = KRAS G12C (Homo sapiens (Human), UniProt P01116+P62937, G12C); test: as above; assay type: biochemical; settings: read-out: KRAS G12C FRET IC50
Sequence of KRAS G12C (P01116-2 other isoform, or with tags, fused parts or gaps G12C): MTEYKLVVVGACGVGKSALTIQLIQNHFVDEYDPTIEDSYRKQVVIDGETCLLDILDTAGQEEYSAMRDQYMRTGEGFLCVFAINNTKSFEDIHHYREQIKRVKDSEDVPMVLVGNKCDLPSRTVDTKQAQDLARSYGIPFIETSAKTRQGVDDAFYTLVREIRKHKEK
Sequence of KRAS G12C (P62937 whole entry): as the sequence (P62937 whole entry) above
Procedure, shortened: as §2

KRAS WT = KRAS WT (Homo sapiens (Human), UniProt P01116+P62937); test: as above; assay type: biochemical; settings: read-out: KRAS WT FRET data IC50
Sequence of KRAS WT (P01116 other isoform, or with tags, fused parts or gaps): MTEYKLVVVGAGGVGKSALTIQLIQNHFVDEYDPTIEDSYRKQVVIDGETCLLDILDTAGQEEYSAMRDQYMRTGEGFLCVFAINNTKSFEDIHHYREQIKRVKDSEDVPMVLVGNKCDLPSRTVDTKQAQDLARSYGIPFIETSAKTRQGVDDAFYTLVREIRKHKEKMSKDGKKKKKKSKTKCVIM
Sequence of KRAS WT (P62937 whole entry): as the sequence (P62937 whole entry) above
Procedure, shortened: as §2

NRAS Q61K = NRAS Q61K (Homo sapiens (Human), UniProt P01111+P62937, Q61K); test: as above; assay type: biochemical
Sequence of NRAS Q61K (P01111 whole entry Q61K): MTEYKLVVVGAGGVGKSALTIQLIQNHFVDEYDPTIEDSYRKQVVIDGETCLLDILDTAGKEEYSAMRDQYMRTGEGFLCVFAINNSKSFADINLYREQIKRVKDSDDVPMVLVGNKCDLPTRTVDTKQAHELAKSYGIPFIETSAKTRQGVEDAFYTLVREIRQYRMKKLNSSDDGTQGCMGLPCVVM
Sequence of NRAS Q61K (P62937 whole entry): as the sequence (P62937 whole entry) above
Procedure, shortened: (§3)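 25 μM tagless Cyclophilin A, 12.5 nM His6-Ras-GMPPNP and 50 nM GST-BRAF RBD in HEPES pH 7.3 buffer with 5 mM MgCl2, with compound (10-point 3-fold series from 30 μM final) for 3 h at 25 °C. Anti-His Eu and anti-GST APC then added for 1.5 h. IC50 from TR-FRET ratio decrease versus DMSO.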

NRAS G12C = NRAS G12C (Homo sapiens (Human), UniProt P01111+P62937, G12C); test: as above; assay type: biochemical; settings: read-out: NRAS G12C FRET data IC50
Sequence of NRAS G12C (P01111 whole entry G12C): as the sequence (P01111 whole entry Q61K) above, with G12C, K61Q counted along it
Sequence of NRAS G12C (P62937 whole entry): as the sequence (P62937 whole entry) above
Procedure, shortened: as §3

KRAS G12D = KRAS G12D (Homo sapiens (Human), UniProt P01116+P62937, G12D); test: as above; assay type: biochemical; settings: read-out: KRAS G12D FRET IC50
Sequence of KRAS G12D (P01116 other isoform, or with tags, fused parts or gaps G12D): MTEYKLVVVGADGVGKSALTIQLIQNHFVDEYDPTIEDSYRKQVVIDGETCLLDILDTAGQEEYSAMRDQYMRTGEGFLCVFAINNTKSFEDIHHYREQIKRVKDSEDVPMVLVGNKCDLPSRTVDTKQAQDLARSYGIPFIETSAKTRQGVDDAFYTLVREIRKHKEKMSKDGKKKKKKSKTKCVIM
Sequence of KRAS G12D (P62937 whole entry): as the sequence (P62937 whole entry) above
Procedure, shortened: as §2

KRAS G13D = KRAS G13D (Homo sapiens (Human), UniProt P01116+P62937, G13D); test: as above; assay type: biochemical; settings: read-out: KRAS G13D FRET data IC50
Sequence of KRAS G13D (P01116 other isoform, or with tags, fused parts or gaps G13D): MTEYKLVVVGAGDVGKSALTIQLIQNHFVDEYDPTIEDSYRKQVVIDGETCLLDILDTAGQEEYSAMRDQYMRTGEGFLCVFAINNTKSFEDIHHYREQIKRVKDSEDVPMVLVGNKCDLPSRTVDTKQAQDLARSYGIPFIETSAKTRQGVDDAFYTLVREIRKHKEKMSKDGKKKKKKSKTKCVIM
Sequence of KRAS G13D (P62937 whole entry): as the sequence (P62937 whole entry) above
Procedure, shortened: as §2

NRAS WT = NRAS WT (Homo sapiens (Human), UniProt P01111+P62937); test: as above; assay type: biochemical
Sequence of NRAS WT (P01111 whole entry): as the sequence (P01111 whole entry Q61K) above, with K61Q counted along it
Sequence of NRAS WT (P62937 whole entry): as the sequence (P62937 whole entry) above
Procedure, shortened: as §3

KRAS G12V = KRAS G12V (Homo sapiens (Human), UniProt P01116+P62937, G12V); test: as above; assay type: biochemical; settings: read-out: KRAS G12V FRET IC50
Sequence of KRAS G12V (P01116 other isoform, or with tags, fused parts or gaps G12V): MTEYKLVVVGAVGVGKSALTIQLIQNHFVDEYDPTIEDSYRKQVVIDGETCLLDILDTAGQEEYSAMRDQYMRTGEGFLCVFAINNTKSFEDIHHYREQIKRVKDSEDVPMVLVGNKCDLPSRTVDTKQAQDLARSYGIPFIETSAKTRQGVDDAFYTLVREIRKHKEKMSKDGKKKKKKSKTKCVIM
Sequence of KRAS G12V (P62937 whole entry): as the sequence (P62937 whole entry) above
Procedure, shortened: as §2

KRAS G12S = KRAS G12S (Homo sapiens (Human), UniProt P01116+P62937, G12S); test: as above; assay type: biochemical; settings: read-out: KRAS G12S FRET IC50
Sequence of KRAS G12S (P01116 other isoform, or with tags, fused parts or gaps G12S): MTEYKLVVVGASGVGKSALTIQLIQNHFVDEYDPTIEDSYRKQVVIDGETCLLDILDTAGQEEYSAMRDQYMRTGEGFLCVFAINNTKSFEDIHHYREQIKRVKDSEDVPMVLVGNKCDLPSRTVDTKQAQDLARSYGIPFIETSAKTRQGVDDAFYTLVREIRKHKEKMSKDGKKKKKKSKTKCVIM
Sequence of KRAS G12S (P62937 whole entry): as the sequence (P62937 whole entry) above
Procedure, shortened: as §2

KRAS Q61H = KRAS Q61H (Homo sapiens (Human), UniProt P01116+P62937, Q61H); test: as above; assay type: biochemical
Sequence of KRAS Q61H (P01116 other isoform, or with tags, fused parts or gaps Q61H): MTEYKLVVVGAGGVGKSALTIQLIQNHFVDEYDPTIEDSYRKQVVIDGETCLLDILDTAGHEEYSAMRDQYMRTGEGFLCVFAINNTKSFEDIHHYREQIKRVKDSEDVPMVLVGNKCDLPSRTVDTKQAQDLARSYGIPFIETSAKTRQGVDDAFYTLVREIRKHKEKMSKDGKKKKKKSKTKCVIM
Sequence of KRAS Q61H (P62937 whole entry): as the sequence (P62937 whole entry) above
Procedure, shortened: as §2

[3] = test system: K-Ras G12C (NCI-H358 cells); test: Potency assay: pERK in NCI-H358 cells; assay type: cell-based, human; settings: Homo sapiens; NCI-H358 cells, 4 hours; read-out: pERK EC50 (H358 KRAS G12C)
Procedure, shortened: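 Cells plated the day before were exposed for 4 h at 37° C, 5% CO2 to a 10-point, 3-fold DMSO dilution series (10 mM top stock), in duplicate. Phospho-ERK was read by AlphaLISA SureFire Ultra or by In-Cell Western with DRAQ5 DNA stain, and IC50 came from a 4-parameter sigmoidal fit.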

NRAS Q61R = NRAS Q61R (Homo sapiens (Human), UniProt P01111+P62937, Q61R); test: Ras-Raf disruption/FRET/MOA assay (BRAF RBD, Cyclophilin A); assay type: biochemical
Sequence of NRAS Q61R (P01111 whole entry Q61R): as the sequence (P01111 whole entry Q61K) above, with K61R counted along it
Sequence of NRAS Q61R (P62937 whole entry): as the sequence (P62937 whole entry) above
Procedure, shortened: as §3

NCI-H358 (K-Ras G12C) = test: CellTiter-Glo cell viability assay, NCI-H358; assay type: cell-based, human; settings: Homo sapiens, NCI-H358, 120 h, 5-day treatment; read-out: H358 Cell Viability assay data (K-Ras G12C, IC50)
Procedure, shortened: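 Cells seeded, compound added directly to plates; day 5: plates to RT ~30 min, CellTiter-Glo luminescence; (sample/avg DMSO)*100; 4-parameter fit.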

[4] = target: K-Ras G12C(GMP-PNP) binding to BRAF RBD (Homo sapiens (Human), UniProt P01116+P62937, G12C); test: Disruption of BRAF RBD interaction with K-Ras (FRET / MOA assay), K-Ras G12C; assay type: biochemical; settings: read-out: KRAS G12C FRET IC50
Sequence of K-Ras G12C(GMP-PNP) binding to BRAF RBD (P01116 other isoform, or with tags, fused parts or gaps G12C): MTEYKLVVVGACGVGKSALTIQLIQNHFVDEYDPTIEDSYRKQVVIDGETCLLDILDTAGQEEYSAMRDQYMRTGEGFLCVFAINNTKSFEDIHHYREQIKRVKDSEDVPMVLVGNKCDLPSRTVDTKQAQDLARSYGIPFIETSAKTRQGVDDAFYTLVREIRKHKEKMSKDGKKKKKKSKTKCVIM
Sequence of K-Ras G12C(GMP-PNP) binding to BRAF RBD (P62937 whole entry): as the sequence (P62937 whole entry) above
Procedure, shortened: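 Compounds promote ternary complex of nucleotide-loaded Ras (here K-Ras G12C·GMP-PNP; other Ras mutants substituted) with cyclophilin A, disrupting BRAF RBD binding. 10-point 3-fold series from 30 μM final, 3 h at 25 °C, then anti-His Eu (10 nM) and anti-GST APC (50 nM) for 1.5 h. TR-FRET ratio decrease versus DMSO gave IC50.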

| pIC50 [1] | pIC50 (KRAS G13C) | pIC50 (KRAS G12C) | pIC50 (KRAS WT) | pIC50 (NRAS Q61K) | pIC50 (NRAS G12C) | pIC50 (KRAS G12D) | pIC50 (KRAS G13D) | pIC50 (NRAS WT) | pIC50 (KRAS G12V) | pIC50 (KRAS G12S) | pIC50 (KRAS Q61H) | pEC50 [3] | pIC50 (NRAS Q61R) | pIC50 (NCI-H358 (K-Ras G12C)) | pIC50 [4] | SMILES | pIC50 [2] |
| --- | --- | --- | --- | --- | --- | --- | --- | --- | --- | --- | --- | --- | --- | --- | --- | --- | --- |
| 6.00 to 7.00 | 6.00 to 7.00 | 6.00 to 7.00 | 6.00 to 7.00 | 6.00 to 7.00 | 6.00 to 7.00 | 5.00 to 6.00 | 5.00 to 6.00 | 6.00 to 7.00 | 6.00 to 7.00 | 6.00 to 7.00 | 6.00 to 7.00 |  |  |  |  | CCn1c(-c2cccnc2[C@H](C)OC)c2c3cc(ccc31)-c1csc(n1)C[C@H](NC(=O)N1CCC1)C(=O)N1CCC[C@H](N1)C(=O)OCC(C)(C)C2 [Compound A368] | 6.00 to 7.00 |
|  | 5.00 to 6.00 | 5.00 to 6.00 | 5.00 to 6.00 | 5.00 to 6.00 | 5.00 to 6.00 | 5.00 to 6.00 | 5.00 to 6.00 | 5.00 to 6.00 |  | 5.00 to 6.00 |  | > 5.30 | 5.00 to 6.00 |  |  | CCn1c(-c2cccnc2[C@H](C)OC)c2c3cc(ccc31)-c1csc(n1)C[C@H](NC(=O)[C@H](C(C)C)N(C)C(=O)[C@H]1[C@@H]3CNC[C@@H]31)C(=O)N1CCC[C@H](N1)C(=O)OCC(C)(C)C2 [Compound A448] | < 5.00 |
|  | 5.00 to 6.00 | 5.00 to 6.00 | 5.00 to 6.00 | 5.00 to 6.00 | 5.00 to 6.00 | 5.00 to 6.00 | 5.00 to 6.00 | 5.00 to 6.00 | 5.00 to 6.00 | 5.00 to 6.00 |  |  | 5.00 to 6.00 | < 5.00 | 5.00 to 6.00 | CCn1c(-c2cccnc2[C@H](C)OC)c2c3cc(ccc31)-c1csc(n1)C[C@H](NC(=O)[C@H](C(C)C)N(C)C(=O)N1C[C@@H]3CCN(C)C[C@@H]31)C(=O)N1CCC[C@H](N1)C(=O)OCC(C)(C)C2 [Compound A516] | 6.00 to 7.00 |
| 5.00 to 6.00 | 5.00 to 6.00 | 5.00 to 6.00 | 5.00 to 6.00 | 5.00 to 6.00 | 5.00 to 6.00 | 5.00 to 6.00 | 5.00 to 6.00 | 5.00 to 6.00 | 5.00 to 6.00 | 5.00 to 6.00 |  | > 5.30 | 5.00 to 6.00 |  |  | CCn1c(-c2cccnc2[C@H](C)OC)c2c3cc(ccc31)-c1csc(n1)C[C@H](NC(=O)[C@H](C(C)C)N(C)C(=O)N1C[C@H]3CCN(C)C[C@H]31)C(=O)N1CCC[C@H](N1)C(=O)OCC(C)(C)C2 [Compound A517] | 6.00 to 7.00 |
| > 8.00 |  |  |  | 6.00 to 7.00 | 7.00 to 8.00 |  |  | 6.00 to 7.00 |  |  |  | > 5.30 | 7.00 to 8.00 |  |  | CCn1c(-c2cc(N3CCN(C)CC3)cnc2[C@H](C)OC)c2c3cc(ccc31)-c1csc(n1)C[C@H](NC(=O)[C@H](C(C)C)N(C)C(=O)C1OCC[C@@H]1c1ccccc1)C(=O)N1CCC[C@H](N1)C(=O)OCC(C)(C)C2 (stereo partly drawn) [Compound A583] | > 8.00 |
| 6.00 to 7.00 | 5.00 to 6.00 | 5.00 to 6.00 | 5.00 to 6.00 | 6.00 to 7.00 | 5.00 to 6.00 | 5.00 to 6.00 | 5.00 to 6.00 | 5.00 to 6.00 | 5.00 to 6.00 | 5.00 to 6.00 |  |  | 5.00 to 6.00 | 7.00 to 8.00 | 6.00 to 7.00 | CCn1c(-c2cccnc2[C@H](C)OC)c2c3nc(ccc31)-c1csc(n1)C[C@H](NC(=O)[C@H](C(C)C)N(C)C(=O)N1CC(OC)C1)C(=O)N1CCC[C@H](N1)C(=O)OCC(C)(C)C2 [Compound A613, N-((2S)-1-(((6^3S,4S,Z)-1^1-ethyl-1^2-(2-((S)-1-methoxyethyl)pyridin-3-yl)-10,10-dimethyl-5,7-dioxo-6^1,6^2,6^3,6^4,6^5,6^6-hexahydro-1^1H-8-oxa-2 (4,2)-thiazola-1 (5,3)-pyrrolo [3,2-b]pyridina-6 (1,3)-pyridazinacycloundecaphane-4-yl)amino)-3-methyl-1-oxobutan-2-yl)-3-methoxy-N-methylazetidine-1-carboxamide] | 6.00 to 7.00 |
